Data as given in PubChem BioAssay (NCI).
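Here, GI50 denotes the concentration required for 50% inhibition of growth. TGI denotes the concentration required for complete inhibition of growth.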

How the values were obtained:
Assay in all cases: growth of human tumour cells (NCI), 384-well format
TK-10 renal = test system: TK-10 renal
UO-31 renal = test system: UO-31 renal
T-47D breast = test system: T-47D breast
RXF 393 renal = test system: RXF 393 renal
CAKI-1 renal = test system: CAKI-1 renal
UACC-257 melanoma = test system: UACC-257 melanoma
SF-295 CNS = test system: SF-295 CNS
PC-3 prostate = test system: PC-3 prostate
A549 NSCLC = test system: A549 NSCLC
SR leukemia = test system: SR leukemia
EKVX NSCLC = test system: EKVX NSCLC
HOP-92 NSCLC = test system: HOP-92 NSCLC
LOX IMVI melanoma = test system: LOX IMVI melanoma
MALME-3M melanoma = test system: MALME-3M melanoma
NCI-H460 NSCLC = test system: NCI-H460 NSCLC
MDA-MB-468 breast = test system: MDA-MB-468 breast
OVCAR-4 ovarian = test system: OVCAR-4 ovarian
OVCAR-3 ovarian = test system: OVCAR-3 ovarian
SF-268 CNS = test system: SF-268 CNS
SNB-19 CNS = test system: SNB-19 CNS
COLO 205 colon = test system: COLO 205 colon
A498 renal = test system: A498 renal
SF-539 CNS = test system: SF-539 CNS
SK-MEL-5 melanoma = test system: SK-MEL-5 melanoma
MCF7 breast = test system: MCF7 breast
MOLT-4 leukemia = test system: MOLT-4 leukemia
NCI/ADR-RES ovarian = test system: NCI/ADR-RES ovarian
IGROV1 ovarian = test system: IGROV1 ovarian
HCT-116 colon = test system: HCT-116 colon
DU-145 prostate = test system: DU-145 prostate
SNB-75 CNS = test system: SNB-75 CNS
HT29 colon = test system: HT29 colon
HCT-15 colon = test system: HCT-15 colon
SN12C renal = test system: SN12C renal
NCI-H226 lung = test system: NCI-H226 lung
MDA-MB-231 breast = test system: MDA-MB-231 breast
U251 glioblastoma = test system: U251 glioblastoma
RPMI-8226 leukemia = test system: RPMI-8226 leukemia
ACHN renal = test system: ACHN renal
SK-OV-3 ovarian = test system: SK-OV-3 ovarian
HS 578T breast = test system: HS 578T breast
HOP-62 NSCLC = test system: HOP-62 NSCLC
UACC-62 melanoma = test system: UACC-62 melanoma
OVCAR-8 ovarian = test system: OVCAR-8 ovarian
HCC-2998 colon = test system: HCC-2998 colon
KM12 colon = test system: KM12 colon
786-0 renal = test system: 786-0 renal
OVCAR-5 ovarian = test system: OVCAR-5 ovarian
NCI-H23 lung = test system: NCI-H23 lung
SK-MEL-28 melanoma = test system: SK-MEL-28 melanoma
HL-60(TB) leukemia = test system: HL-60(TB) leukemia
NCI-H522 lung = test system: NCI-H522 lung
MDA-MB-435 melanoma = test system: MDA-MB-435 melanoma
BT-549 breast = test system: BT-549 breast
NCI-H322M lung = test system: NCI-H322M lung
M14 melanoma = test system: M14 melanoma

COc1cc2c(Nc3ccc(Br)cc3F)ncnc2cc1OCC1CCN(C)CC1
GI50 (TK-10 renal): 1980 nM
TGI (TK-10 renal): 5100 nM
GI50 (UO-31 renal): 1160 nM
TGI (UO-31 renal): 2460 nM
GI50 (T-47D breast): 1330 nM
TGI (T-47D breast): 8790 nM
GI50 (RXF 393 renal): 836 nM
TGI (RXF 393 renal): 2480 nM
GI50 (CAKI-1 renal): 1230 nM
TGI (CAKI-1 renal): 2550 nM
GI50 (UACC-257 melanoma): 1900 nM
TGI (UACC-257 melanoma): 3320 nM
GI50 (SF-295 CNS): 66600 nM
TGI (SF-295 CNS): > 100000 nM
GI50 (PC-3 prostate): 3460 nM
TGI (PC-3 prostate): 18400 nM
GI50 (A549 NSCLC): 2070 nM
TGI (A549 NSCLC): 11200 nM
GI50 (SR leukemia): 3540 nM
TGI (SR leukemia): 5010 nM
GI50 (EKVX NSCLC): 943 nM
TGI (EKVX NSCLC): 8630 nM
GI50 (HOP-92 NSCLC): 1370 nM
TGI (HOP-92 NSCLC): 2840 nM
GI50 (LOX IMVI melanoma): 2040 nM
TGI (LOX IMVI melanoma): 4240 nM
GI50 (MALME-3M melanoma): 1770 nM
TGI (MALME-3M melanoma): 3160 nM
GI50 (NCI-H460 NSCLC): 4660 nM
TGI (NCI-H460 NSCLC): 16000 nM
GI50 (MDA-MB-468 breast): 551 nM
TGI (MDA-MB-468 breast): 1920 nM
GI50 (OVCAR-4 ovarian): 2300 nM
TGI (OVCAR-4 ovarian): 10200 nM
GI50 (OVCAR-3 ovarian): 1050 nM
TGI (OVCAR-3 ovarian): 4520 nM
GI50 (SF-268 CNS): 2460 nM
TGI (SF-268 CNS): 7050 nM
GI50 (SNB-19 CNS): 10600 nM
TGI (SNB-19 CNS): > 100000 nM
GI50 (COLO 205 colon): 2350 nM
TGI (COLO 205 colon): 6010 nM
GI50 (A498 renal): 1440 nM
TGI (A498 renal): 3340 nM
GI50 (SF-539 CNS): 2640 nM
TGI (SF-539 CNS): 8640 nM
GI50 (SK-MEL-5 melanoma): 1540 nM
TGI (SK-MEL-5 melanoma): 3020 nM
GI50 (MCF7 breast): 2780 nM
TGI (MCF7 breast): 11100 nM
GI50 (MOLT-4 leukemia): 1920 nM
TGI (MOLT-4 leukemia): 5650 nM
GI50 (NCI/ADR-RES ovarian): 2240 nM
TGI (NCI/ADR-RES ovarian): 6430 nM
GI50 (IGROV1 ovarian): 262 nM
TGI (IGROV1 ovarian): 1040 nM
GI50 (HCT-116 colon): 3100 nM
TGI (HCT-116 colon): 10700 nM
GI50 (DU-145 prostate): 2220 nM
TGI (DU-145 prostate): 12400 nM
GI50 (SNB-75 CNS): 1570 nM
TGI (SNB-75 CNS): 3610 nM
GI50 (HT29 colon): 1780 nM
TGI (HT29 colon): 3610 nM
GI50 (HCT-15 colon): 1980 nM
TGI (HCT-15 colon): 5360 nM
GI50 (SN12C renal): 2330 nM
TGI (SN12C renal): 16300 nM
GI50 (NCI-H226 lung): 1300 nM
TGI (NCI-H226 lung): 5470 nM
GI50 (MDA-MB-231 breast): 1870 nM
TGI (MDA-MB-231 breast): 4300 nM
GI50 (U251 glioblastoma): 4460 nM
TGI (U251 glioblastoma): 17100 nM
GI50 (RPMI-8226 leukemia): 2840 nM
TGI (RPMI-8226 leukemia): 6120 nM
GI50 (ACHN renal): 553 nM
TGI (ACHN renal): 3910 nM
GI50 (SK-OV-3 ovarian): 1930 nM
TGI (SK-OV-3 ovarian): 6310 nM
GI50 (HS 578T breast): 1520 nM
TGI (HS 578T breast): 2920 nM
GI50 (HOP-62 NSCLC): 2770 nM
TGI (HOP-62 NSCLC): 10400 nM
GI50 (UACC-62 melanoma): 1830 nM
TGI (UACC-62 melanoma): 3370 nM
GI50 (OVCAR-8 ovarian): 2540 nM
TGI (OVCAR-8 ovarian): 7230 nM
GI50 (HCC-2998 colon): 2390 nM
TGI (HCC-2998 colon): 5590 nM
GI50 (KM12 colon): 5900 nM
TGI (KM12 colon): 17400 nM
GI50 (786-0 renal): 1370 nM
TGI (786-0 renal): 2870 nM
GI50 (OVCAR-5 ovarian): 2190 nM
TGI (OVCAR-5 ovarian): 11500 nM
GI50 (NCI-H23 lung): 3380 nM
TGI (NCI-H23 lung): 15500 nM
GI50 (SK-MEL-28 melanoma): 1710 nM
TGI (SK-MEL-28 melanoma): 3110 nM
GI50 (HL-60(TB) leukemia): 2090 nM
TGI (HL-60(TB) leukemia): 3530 nM
GI50 (NCI-H522 lung): 616 nM
TGI (NCI-H522 lung): 2530 nM
GI50 (MDA-MB-435 melanoma): 2590 nM
TGI (MDA-MB-435 melanoma): 4420 nM
GI50 (BT-549 breast): 2240 nM
TGI (BT-549 breast): 5060 nM
GI50 (NCI-H322M lung): 298 nM
TGI (NCI-H322M lung): 900 nM
GI50 (M14 melanoma): 1980 nM
TGI (M14 melanoma): 3420 nM
